In article PMC8851638 (ACS Omega, 2022):
In brackets after ≈: the same amount, converted by molar mass. Several values for one entry are separate records, joined by “and”; a condition that tells them apart may be missing. Equal values may be shown once.

Key:
S. aureus (MDR00231) [1] = experiment: MIC and MBC by broth microdilution; format: cell-based, Staphylococcus aureus
S. aureus (MDR00231) [2] = experiment: Agar well-diffusion antimicrobial sensitivity assay; format: cell-based, Staphylococcus aureus; conditions: Staphylococcus aureus, read-out: Inhibition Zone (IZ)
[3] = tested on: C. albicans200 (MDR00200); experiment: MIC and MFC by broth microdilution; format: cell-based, Candida albicans
[4] = tested on: C. albicans100 (MDR00100); experiment: MIC and MFC by broth microdilution; format: cell-based, Candida albicans
B. subtilis [5] = experiment: Single-step resistance selection; format: cell-based; conditions: 4 × MIC, 48 h
B. subtilis (MDR00423) = experiment: MIC and MBC by broth microdilution; format: cell-based
[6] = tested on: C. albicans200 (MDR00200); experiment: Agar well-diffusion antimicrobial sensitivity assay; format: cell-based, Candida albicans; conditions: Candida albicans, read-out: Inhibition Zone (IZ)
B. subtilis [7] = experiment: Checkerboard combination assay with Ciprofloxacin; format: cell-based
K. pneumoniae [8] = experiment: Single-step resistance selection; format: cell-based; conditions: 4 × MIC, 48 h
S. aureus [9] = experiment: Checkerboard combination assay with Ciprofloxacin; format: cell-based, Staphylococcus aureus
C. albicans100 [10] = experiment: Checkerboard combination assay with Ketoconazole; format: cell-based, Candida albicans
[11] = tested on: C. albicans100 (MDR00100); experiment: Agar well-diffusion antimicrobial sensitivity assay; format: cell-based, Candida albicans; conditions: Candida albicans, read-out: Inhibition Zone (IZ)
E. coli DNA gyrase = E. coli DNA gyrase (Escherichia coli, UniProt P0AES4+P0AES6); experiment: DNA gyrase inhibition; format: biochemical
Sequence of E. coli DNA gyrase (P0AES4 whole entry, one chain of several): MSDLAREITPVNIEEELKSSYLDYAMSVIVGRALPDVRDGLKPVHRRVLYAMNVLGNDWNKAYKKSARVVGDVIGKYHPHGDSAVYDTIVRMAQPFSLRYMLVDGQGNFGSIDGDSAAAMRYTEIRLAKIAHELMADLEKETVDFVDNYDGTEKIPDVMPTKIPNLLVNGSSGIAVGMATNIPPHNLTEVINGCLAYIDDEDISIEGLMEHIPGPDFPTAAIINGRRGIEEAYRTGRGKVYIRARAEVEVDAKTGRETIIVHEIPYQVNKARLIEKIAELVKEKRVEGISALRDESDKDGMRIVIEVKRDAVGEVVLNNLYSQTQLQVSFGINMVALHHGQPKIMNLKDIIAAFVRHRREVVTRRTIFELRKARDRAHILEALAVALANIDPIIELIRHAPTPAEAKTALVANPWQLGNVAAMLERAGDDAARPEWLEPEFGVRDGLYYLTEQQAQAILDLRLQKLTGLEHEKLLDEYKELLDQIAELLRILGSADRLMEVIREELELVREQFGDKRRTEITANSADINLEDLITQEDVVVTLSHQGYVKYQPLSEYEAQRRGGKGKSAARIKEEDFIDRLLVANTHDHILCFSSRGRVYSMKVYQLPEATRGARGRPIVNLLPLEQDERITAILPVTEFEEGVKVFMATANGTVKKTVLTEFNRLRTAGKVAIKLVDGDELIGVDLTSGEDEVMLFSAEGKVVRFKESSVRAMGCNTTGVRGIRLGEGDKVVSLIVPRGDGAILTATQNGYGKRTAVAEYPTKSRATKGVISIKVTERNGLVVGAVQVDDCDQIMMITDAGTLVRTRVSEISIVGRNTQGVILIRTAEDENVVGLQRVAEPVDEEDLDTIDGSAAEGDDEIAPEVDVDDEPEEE

S. epidermidis [12] = experiment: Checkerboard combination assay with Ciprofloxacin; format: cell-based, Staphylococcus epidermidis
[13] = biological target: T1, dihydrofolate reductase (DHFR) (Homo sapiens, UniProt P00374); experiment: DHFR inhibition; format: biochemical
T1 sequence (P00374 1-187): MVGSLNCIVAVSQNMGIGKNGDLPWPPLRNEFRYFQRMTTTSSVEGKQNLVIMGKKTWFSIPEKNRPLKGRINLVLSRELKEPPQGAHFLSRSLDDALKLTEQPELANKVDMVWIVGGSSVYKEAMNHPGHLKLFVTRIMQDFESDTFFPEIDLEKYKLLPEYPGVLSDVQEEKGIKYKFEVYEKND

C. albicans200 [14] = experiment: Single-step resistance selection; format: cell-based, Candida albicans; conditions: 4 × MIC, 48 h
[15] = tested on: BNL: mouse normal liver cells; experiment: In vitro cytotoxicity on normal cell line; format: cell-based
[16] = In vitro cytotoxicity on normal cell line; format: cell-based, mouse; conditions: mouse, BNL normal liver cells
E. coli (MDR00501) [17] = experiment: Agar well-diffusion antimicrobial sensitivity assay; format: cell-based; conditions: Escherichia coli, read-out: Inhibition Zone (IZ)
RBCs = experiment: Hemolytic assay; format: cell-based; conditions: human RBCs; compounds 1.0 mg/mL; Triton X-100 0.1% v/v; 37 °C, 35 min
S. epidermidis [18] = experiment: Single-step resistance selection; format: cell-based, Staphylococcus epidermidis; conditions: 4 × MIC, 48 h
[19] = In vitro cytotoxicity on normal cell line; format: cell-based, green monkey; conditions: green monkey, Vero kidney cells
[20] = tested on: Vero: green monkey kidney; experiment: In vitro cytotoxicity on normal cell line; format: cell-based
[21] = tested on: H9C2: rat heart/myocardium; experiment: In vitro cytotoxicity on normal cell line; format: cell-based
[22] = In vitro cytotoxicity on normal cell line; format: cell-based, rat; conditions: rat, H9C2 heart/myocardium cells
C. albicans200 [23] = experiment: Checkerboard combination assay with Ketoconazole; format: cell-based, Candida albicans
E. coli (MDR00501) [24] = experiment: MIC and MBC by broth microdilution; format: cell-based
S. aureus [25] = experiment: Single-step resistance selection; format: cell-based, Staphylococcus aureus; conditions: 4 × MIC, 48 h
S. epidermidis biofilm = experiment: Staphylococcus biofilm mass reduction; format: cell-based; conditions: at their MIC
A. baumannii [26] = experiment: Single-step resistance selection; format: cell-based; conditions: 4 × MIC, 48 h
K. pneumoniae [27] = experiment: Checkerboard combination assay with Ciprofloxacin; format: cell-based
E. coli [28] = experiment: Checkerboard combination assay with Ciprofloxacin; format: cell-based
[29] = tested on: S. epidermidis (MDR00223); experiment: MIC and MBC by broth microdilution; format: cell-based, Staphylococcus epidermidis
A. baumannii [30] = experiment: Checkerboard combination assay with Ciprofloxacin; format: cell-based
S. aureus biofilm = experiment: Staphylococcus biofilm mass reduction; format: cell-based; conditions: at their MIC
[31] = tested on: S. epidermidis (MDR00223); experiment: Agar well-diffusion antimicrobial sensitivity assay; format: cell-based, Staphylococcus epidermidis; conditions: Staphylococcus epidermidis, read-out: Inhibition Zone (IZ)
A. baumannii (MDR00521) = experiment: MIC and MBC by broth microdilution; format: cell-based
C. albicans100 [32] = experiment: Single-step resistance selection; format: cell-based, Candida albicans; conditions: 4 × MIC, 48 h
E. coli [33] = experiment: Single-step resistance selection; format: cell-based; conditions: 4 × MIC, 48 h
K. pneumoniae (MDR00244) = experiment: MIC and MBC by broth microdilution; format: cell-based; conditions: ratio in parentheses

N#CC(=Cc1cn(-c2ccccc2)nc1-c1ccccc1)C1=NC(=O)CS1 [Compound 4a, 3-(1,3-Diphenyl-1H-pyrazol-4-yl)-2-(4-oxo-4,5-dihydrothiazol-2-yl)acrylonitrile]
MBC/MIC (S. aureus (MDR00231) [1]; S. aureus, ratio in parentheses): 0.5
MIC (S. aureus (MDR00231) [1]; Staphylococcus aureus, read-out: MIC (mean ± SEM), S. aureus, broth microdilution): 0.43 ± 0.4 mg/L (≈ 1.16 µM)
zone of inhibition at 100000 µg/mL (S. aureus (MDR00231) [2]): 31 ± 0.18 mm
MIC (mean ± SEM) ([3]; C. albicans200, broth microdilution): 0.22 ± 0.2 mg/L (≈ 0.594 µM)
MFC/MIC ([3]; C. albicans200, ratio in parentheses): 0.5
MIC ([3]; Candida albicans, read-out: MIC (mean ± SEM), C. albicans200, broth microdilution): 0.22 mg/L (≈ 0.594 µM)
MIC (mean ± SEM) ([4]; C. albicans100, broth microdilution): 0.45 ± 0.3 mg/L (≈ 1.21 µM)
MFC/MIC ([4]; C. albicans100, ratio in parentheses): 1
MIC ([4]; Candida albicans, read-out: MIC (mean ± SEM), C. albicans100, broth microdilution): 0.45 mg/L (≈ 1.21 µM)
Single-step resistance frequency (mutation frequency) (B. subtilis [5]): 2.20 × 10^–8
MBC/MIC (B. subtilis (MDR00423); B. subtilis, ratio in parentheses): 0.5
MIC (B. subtilis (MDR00423); Bacillus subtilis, read-out: MIC (mean ± SEM), B. subtilis, broth microdilution): 0.45 ± 0.5 mg/L (≈ 1.21 µM)
zone of inhibition at 100000 µg/mL [6]: 31 ± 0.22 mm
combination effect (B. subtilis [7]): S (S: synergism)
fractional inhibitory concentration index (FICI) (B. subtilis [7]): 0.5
Single-step resistance frequency (mutation frequency) (K. pneumoniae [8]): 1.54 × 10^–9
combination effect (S. aureus [9]): S (S: synergism)
fractional inhibitory concentration index (FICI) (S. aureus [9]): 0.25
combination effect (C. albicans100 [10]): S (S: synergism)
fractional inhibitory concentration index (FICI) (C. albicans100 [10]): 0.5
zone of inhibition at 100000 µg/mL [11]: 29 ± 0.23 mm
IC50 (E. coli DNA gyrase): 18.2 ± 0.67 µM
combination effect (S. epidermidis [12]): S (S: synergism)
fractional inhibitory concentration index (FICI) (S. epidermidis [12]): 0.5
IC50 [13]: 0.98 ± 0.11 µM
Single-step resistance frequency (mutation frequency) (C. albicans200 [14]): 1.58 × 10^–7
Selectivity index against DHFR ([15]; IC50 of BNL / IC50 of DHFR): 101.44
Selectivity index against DNA gyrase ([15]; IC50 of BNL / IC50 of DNA gyrase): 5.44
IC50 at 72 h [16]: 99.4 ± 1.04 µM
zone of inhibition at 100000 µg/mL (E. coli (MDR00501) [17]): 26 ± 0.33 mm
%lysis of RBCs (RBCs): 7.55% and 7.55 ± 0.63%
Single-step resistance frequency (mutation frequency) (S. epidermidis [18]): 2.43 × 10^–7
IC50 at 72 h [19]: 86.9 ± 0.97 µM
Selectivity index against DHFR ([20]; IC50 of Vero / IC50 of DHFR): 88.70
Selectivity index against DNA gyrase ([20]; IC50 of Vero / IC50 of DNA gyrase): 4.76
Selectivity index against DHFR ([21]; IC50 of H9C2 / IC50 of DHFR): 105.40
Selectivity index against DNA gyrase ([21]; IC50 of H9C2 / IC50 of DNA gyrase): 5.66
IC50 at 72 h [22]: 103 ± 1.5 µM
combination effect (C. albicans200 [23]): S (S: synergism)
fractional inhibitory concentration index (FICI) (C. albicans200 [23]): 0.5
MIC (mean ± SEM) (E. coli (MDR00501) [24]; E. coli, broth microdilution): 0.45 ± 0.2 mg/L (≈ 1.21 µM)
MBC/MIC (E. coli (MDR00501) [24]; E. coli, ratio in parentheses): 0.5
MIC (E. coli (MDR00501) [24]; Escherichia coli, read-out: MIC (mean ± SEM), E. coli, broth microdilution): 0.45 mg/L (≈ 1.21 µM)
Single-step resistance frequency (mutation frequency) (S. aureus [25]): 1.61 × 10^–7
reduction of biofilm formation (S. epidermidis biofilm): 64.8%
Single-step resistance frequency (mutation frequency) (A. baumannii [26]): 1.00 × 10^–9
combination effect (K. pneumoniae [27]): S (S: synergism)
fractional inhibitory concentration index (FICI) (K. pneumoniae [27]): 0.5
combination effect (E. coli [28]): S (S: synergism)
fractional inhibitory concentration index (FICI) (E. coli [28]): 0.25
MBC/MIC ([29]; S. epidermidis, ratio in parentheses): 1
MIC ([29]; Staphylococcus epidermidis, read-out: MIC (mean ± SEM), S. epidermidis, broth microdilution): 0.48 ± 0.2 mg/L (≈ 1.3 µM)
combination effect (A. baumannii [30]): S (S: synergism)
fractional inhibitory concentration index (FICI) (A. baumannii [30]): 0.25
reduction of biofilm formation (S. aureus biofilm): 74.3%
zone of inhibition at 100000 µg/mL [31]: 28 ± 0.13 mm
MIC (mean ± SEM) (A. baumannii (MDR00521); broth microdilution): 0.44 ± 0.3 mg/L (≈ 1.19 µM)
MBC/MIC (A. baumannii (MDR00521); ratio in parentheses): 1
Single-step resistance frequency (mutation frequency) (C. albicans100 [32]): 1.40 × 10^–8
Single-step resistance frequency (mutation frequency) (E. coli [33]): 1.20 × 10^–9
MBC/MIC (K. pneumoniae (MDR00244)): 0.5
